# Molecular target: T1, TAAR1 (Mus musculus, UniProt Q923Y8)
# T1 construct: expressed in transfected cells; host or cells: HEK293 cells (ATCC #CRL-1573), stably transfected with pIRESneo2 expression plasmid; membrane preparation
# Assay: Radioligand binding assay on membranes of HEK293 cells stably expressing TAAR1
# Conditions: Ki value (μM) in mouse, radioligand [3H]-rac-2-(1,2,3,4-tetrahydro-1-naphthyl)-2-imidazoline 60 nM, 4° C., 30 min
# Method: The Expand High Fidelity PCR System (Roche Diagnostics) was used with 1.5 mM Mg^2+ and purified PCR products were cloned into pCR2.1-TOPO cloning vector (Invitrogen) following the instructions of the manufacturer. PCR products were subcloned into the pIRESneo2 vector (BD Clontech, Palo Alto, Calif.), and expression vectors were sequence verified before introduction in cell lines.
# For the generation of stably transfected cell lines HEK293 cells were transfected with the pIRESneo2 expression plasmids containing the TAAR coding sequences (described above) with Lipofectamine 2000 (Invitrogen) according to the instructions of the manufacturer, and 24 hrs post transfection the culture medium was supplemented with 1 mg/ml G418 (Sigma, Buchs, Switzerland). After a culture period of about 10 d clones were isolated, expanded and tested for responsiveness to trace amines (all compounds purchased from Sigma) with the cAMP Biotrak Enzyme immunoassay (EIA) System (Amersham) following the non-acetylation EIA procedure provided by the manufacturer.
# Cells at confluence were rinsed with ice-cold phosphate buffered saline without Ca^2+ and Mg^2+ containing 10 mM EDTA and pelleted by centrifugation at 1000 rpm for 5 min at 4° C. The pellet was then washed twice with ice-cold phosphate buffered saline and cell pellet was frozen immediately by immersion in liquid nitrogen and stored until use at −80° C. Cell pellet was then suspended in 20 ml HEPES-NaOH (20 mM), pH 7.4 containing 10 mM EDTA, and homogenized with a Polytron (PT 3000, Kinematica) at 10,000 rpm for 10 s. The homogenate was centrifuged at 48,000×g for 30 min at 4° C. and the pellet resuspended in 20 ml HEPES-NaOH (20 mM), pH 7.4 containing 0.1 mM EDTA (buffer A), and homogenized with a Polytron at 10,000 rpm for 10 s. The homogenate was then centrifuged at 48,000×g for 30 min at 4° C. and the pellet resuspended in 20 ml buffer A, and homogenized with a Polytron at 10,000 rpm for 10 s. Protein concentration was determined by the method of Pierce (Rockford, Ill.). […] Non-specific binding was defined as the amount of [^3H]-rac-2-(1,2,3,4-tetrahydro-1-naphthyl)-2-imidazoline bound in the presence of the appropriate unlabelled ligand (10 μM). Competing ligands were tested in a wide range of concentrations (10 pM-30 μM). […] Each experiment was performed in duplicate. All incubations were terminated by rapid filtration through UniFilter-96 plates (Packard Instrument Company) and glass filter GF/C, pre-soaked for at least 2 h in polyethylenimine 0.3%, and using a Filtermate 96 Cell Harvester (Packard Instrument Company). The tubes and filters were then washed 3 times with 1 ml aliquots of cold buffer B. Filters were not dried and soaked in Ultima gold (45 μl/well, Packard Instrument Company) and bound radioactivity was counted by a TopCount Microplate Scintillation Counter (Packard Instrument Company).
# T1 sequence (Q923Y8 whole entry): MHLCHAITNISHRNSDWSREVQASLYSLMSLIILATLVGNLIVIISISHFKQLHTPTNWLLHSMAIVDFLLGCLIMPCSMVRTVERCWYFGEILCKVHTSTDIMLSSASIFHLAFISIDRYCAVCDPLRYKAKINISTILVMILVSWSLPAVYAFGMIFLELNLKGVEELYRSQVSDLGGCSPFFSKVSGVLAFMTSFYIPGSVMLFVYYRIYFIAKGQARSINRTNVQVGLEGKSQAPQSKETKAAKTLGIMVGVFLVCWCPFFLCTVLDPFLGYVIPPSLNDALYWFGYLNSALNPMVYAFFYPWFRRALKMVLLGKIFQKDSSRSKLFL
row,SMILES,Ki [µM]
1,"CCCCNc1ccc(C(=O)Nc2cccc(OC)c2)cc1C(F)(F)F [Example 145, 4-Butylamino-N-(3-methoxy-phenyl)-3-trifluoromethyl-benzamide]",0.01
2,"COc1cccc(NC(=O)c2ccc(N3CCOCC3)c(C(F)(F)F)c2)c1 [Example 150, N-(3-Methoxy-phenyl)-4-morpholin-4-yl-3-trifluoromethyl-benzamide]",0.086
3,"CC1CCN(c2ncc(C(=O)Nc3cccc(Cl)c3)cc2Cl)CC1 [Example 155, 3′-Chloro-4-methyl-3,4,5,6-tetrahydro-2H-[1,2′]bipyridinyl-5′-carboxylicacid (3-chloro-phenyl)-amide]",0.023
4,"CCCNc1ncc(C(=O)Nc2cccc(Cl)c2)cc1Cl [Example 157, 5-Chloro-N-(3-chloro-phenyl)-6-propylamino-nicotinamide]",0.011
5,"CCCCNc1ncc(C(=O)Nc2cccc(Cl)c2)cc1Cl [Example 158, 6-Butylamino-5-chloro-N-(3-chloro-phenyl)-nicotinamide]",0.008

# Same assay, conditions: radioligand [3H]-rac-2-(1,2,3,4-tetrahydro-1-naphthyl)-2-imidazoline 60 nM, 4° C., 30 min, read-out: Ki value (μM) in mouse
row,SMILES,Ki [µM]
1,"COc1cccc(NC(=O)c2ccc(F)c(S(=O)(=O)N3CC(C)CC(C)C3)c2)c1 (racemic) [Example 167, (rac,meso)-3-(3,5-Dimethyl-piperidine-1-sulfonyl)-4-fluoro-N-(3-methoxy-phenyl)-benzamide]",0.004
2,"COc1cccc(NC(=O)c2ccc(N3CC(C)CC(C)C3)c(C(F)(F)F)c2)c1 (racemic) [Example 194, (rac,meso)-4-(3,5-Dimethyl-piperidin-1-yl)-N-(3-methoxy-phenyl)-3-trifluoromethyl-benzamide]",0.007
3,"O=C(Nc1ccccc1)c1ccc(Cl)c(C(F)(F)F)c1 [Example 6, 4-Chloro-N-phenyl-3-trifluoromethyl-benzamide]",0.098
4,"COc1cccc(NC(=O)c2ccc(Cl)c([N+](=O)[O-])c2)c1 [Example 12, 4-Chloro-N-(3-methoxy-phenyl)-3-nitro-benzamide]",0.037
5,"COc1cccc(NC(=O)c2ccc(N3CCC(C)CC3)c([N+](=O)[O-])c2)c1 [Example 27, N-(3-Methoxy-phenyl)-4-(4-methyl-piperidin-1-yl)-3-nitro-benzamide]",0.002
6,"COc1cccc(NC(=O)c2ccc(Br)c([N+](=O)[O-])c2)c1 [Example 42, 4-Bromo-N-(3-methoxy-phenyl)-3-nitro-benzamide]",0.021
7,"O=C(Nc1cccc(Cl)c1)c1cnc(Cl)c(Cl)c1 [Example 47, 5,6-Dichloro-N-(3-chloro-phenyl)-nicotinamide]",0.079
8,"COc1cccc(NC(=O)c2ccc(F)c(Cl)c2)c1 [Example 70, 3-Chloro-4-fluoro-N-(3-methoxy-phenyl)-benzamide]",0.1
9,"COc1cccc(NC(=O)c2ccc(F)c(C(F)(F)F)c2)c1 [Example 73, 4-Fluoro-N-(3-methoxy-phenyl)-3-trifluoromethyl-benzamide]",0.03
10,"COc1cccc(NC(=O)c2cnc(Cl)c(Cl)c2)c1 [Example 78, 5,6-Dichloro-N-(3-methoxy-phenyl)-nicotinamide]",0.048
11,"O=C(Nc1cccc(Cl)c1)c1ccc(N2CCNCC2)nc1 [Example 84, N-(3-Chloro-phenyl)-6-piperazin-1-yl-nicotinamide]",0.076
12,"COc1cccc(NC(=O)c2ccc(F)c([N+](=O)[O-])c2)c1 [Example 85, 4-Fluoro-N-(3-methoxy-phenyl)-3-nitro-benzamide]",0.09
13,"CCCNc1ccc(C(=O)Nc2cccc(OC)c2)cc1[N+](=O)[O-] [Example 87, N-(3-Methoxy-phenyl)-3-nitro-4-propylamino-benzamide]",0.004
14,"COc1cccc(NC(=O)c2ccc(NCc3ccccc3)c([N+](=O)[O-])c2)c1 [Example 88, 4-Benzylamino-N-(3-methoxy-phenyl)-3-nitro-benzamide]",0.005
15,"CCNc1ccc(C(=O)Nc2cccc(OC)c2)cc1[N+](=O)[O-] [Example 90, 4-Ethylamino-N-(3-methoxy-phenyl)-3-nitro-benzamide]",0.024
16,"COc1cccc(NC(=O)c2ccc(NC(C)C)c([N+](=O)[O-])c2)c1 [Example 91, 4-Isopropylamino-N-(3-methoxy-phenyl)-3-nitro-benzamide]",0.012
17,"COc1cccc(NC(=O)c2ccc(N3CCC3)c([N+](=O)[O-])c2)c1 [Example 92, 4-Azetidin-1-yl-N-(3-methoxy-phenyl)-3-nitro-benzamide]",0.029
18,"COc1cccc(NC(=O)c2ccc(N3CCCC3)c([N+](=O)[O-])c2)c1 [Example 93, N-(3-Methoxy-phenyl)-3-nitro-4-pyrrolidin-1-yl-benzamide]",0.013

row,SMILES,Ki [µM]
1,"COc1cccc(NC(=O)c2ccc(N3CCCCC3)c([N+](=O)[O-])c2)c1 [Example 94, N-(3-Methoxy-phenyl)-3-nitro-4-piperidin-1-yl-benzamide]",0.012
2,"COc1cccc(NC(=O)c2ccc(Nc3ccccc3)c([N+](=O)[O-])c2)c1 [Example 97, N-(3-Methoxy-phenyl)-3-nitro-4-phenylamino-benzamide]",0.029
3,"CN1CCN(c2ccc(C(=O)Nc3cccc(Cl)c3)cn2)CC1 [Example 135, N-(3-Chloro-phenyl)-6-(4-methyl-piperazin-1-yl)-nicotinamide]",0.009
4,"COc1cccc(NC(=O)c2ccc(N3CCCC3)c(C(F)(F)F)c2)c1 [Example 137, N-(3-Methoxy-phenyl)-4-pyrrolidin-1-yl-3-trifluoromethyl-benzamide]",0.002
5,"COCCNc1ccc(C(=O)Nc2cccc(OC)c2)cc1C(F)(F)F [Example 139, 4-(2-Methoxy-ethylamino)-N-(3-methoxy-phenyl)-3-trifluoromethyl-benzamide]",0.077
6,"COc1cccc(NC(=O)c2ccc(N3CCC3)c(C(F)(F)F)c2)c1 [Example 140, 4-Azetidin-1-yl-N-(3-methoxy-phenyl)-3-trifluoromethyl-benzamide]",0.016
7,"COc1cccc(NC(=O)c2ccc(N3CCCCC3)c(C(F)(F)F)c2)c1 [Example 141, N-(3-Methoxy-phenyl)-4-piperidin-1-yl-3-trifluoromethyl-benzamide]",0.038
8,"COc1cccc(NC(=O)c2ccc(N3CCC(C)CC3)c(C(F)(F)F)c2)c1 [Example 143, N-(3-Methoxy-phenyl)-4-(4-methyl-piperidin-1-yl)-3-trifluoromethyl-benzamide]",0.007
9,"CCCNc1ccc(C(=O)Nc2cccc(OC)c2)cc1C(F)(F)F [Example 144, N-(3-Methoxy-phenyl)-4-propylamino-3-trifluoromethyl-benzamide]",0.032
10,"COc1cccc(NC(=O)c2ccc(NCc3ccccc3)c(C(F)(F)F)c2)c1 [Example 147, 4-Benzylamino-N-(3-methoxy-phenyl)-3-trifluoromethyl-benzamide]",0.005
11,"CCNc1ccc(C(=O)Nc2cccc(OC)c2)cc1C(F)(F)F [Example 148, 4-Ethylamino-N-(3-methoxy-phenyl)-3-trifluoromethyl-benzamide]",0.022
12,"COc1cccc(NC(=O)c2ccc(NC(C)C)c(C(F)(F)F)c2)c1 [Example 149, 4-Isopropylamino-N-(3-methoxy-phenyl)-3-trifluoromethyl-benzamide]",0.022
13,"CNc1ncc(C(=O)Nc2cccc(Cl)c2)cc1Cl [Example 151, 5-Chloro-N-(3-chloro-phenyl)-6-methylamino-nicotinamide]",0.096
14,"CC(C)Nc1ncc(C(=O)Nc2cccc(Cl)c2)cc1Cl [Example 152, 5-Chloro-N-(3-chloro-phenyl)-6-isopropylamino-nicotinamide]",0.027
15,"COCCNc1ncc(C(=O)Nc2cccc(Cl)c2)cc1Cl [Example 153, 5-Chloro-N-(3-chloro-phenyl)-6-(2-methoxy-ethylamino)-nicotinamide]",0.035
16,"O=C(Nc1cccc(Cl)c1)c1cnc(N2CCCC2)c(Cl)c1 [Example 154, 5-Chloro-N-(3-chloro-phenyl)-6-pyrrolidin-1-yl-nicotinamide]",0.014
17,"CCNc1ncc(C(=O)Nc2cccc(Cl)c2)cc1Cl [Example 156, 5-Chloro-N-(3-chloro-phenyl)-6-ethylamino-nicotinamide]",0.039
